One assay deals with VLDL secretion. As to the kind of experiment: Determination of the VLDL secretion in vivo in the hamster (Triton WR-1339 triglyceride rise). Particulars: Mesocricetus auratus, po, VLDL secretion measured as triglyceride rise after Triton WR-1339. The arrangement: species or system golden hamsters. The procedure: 2. Determination of the VLDL Secretion In Vivo in the Hamster
The effect of the test substances on VLDL secretion in vivo is investigated in the hamster. To do this, golden hamsters are anaesthetized with Ketaset (83 mg/kg s.c.) and Nembutal (50 mg/kg i.p.) after premedication with atropine ([…] s.c.). When the animals have become reflex-free, the jugular vein is exposed and cannulated. 0.25 ml/kg of a 20% strength solution of Triton WR-1339 in physiological saline solution is then administered. This detergent inhibits the lipoprotein lipase and thus leads to a rise in the triglyceride level as a result of a lack of catabolism of secreted VLDL particles. This triglyceride rise can be used as a measure of the VLDL secretion rate.
Blood is taken from the animals before and also one and two hours after administration of the detergent by puncture of the retroorbital venous plexus. […] The triglyceride concentration in the serum thus obtained is determined with the aid of a modified commercially available enzyme test (Merckotest® triglyceride No. 14354). […] The optical density is then determined at a wavelength of 492 nm in an automatic plate-reading apparatus (SLT Spectra). […] The triglyceride concentration contained in the samples is determined with the aid of a standard curve measured in parallel. […]

Assay [1] deals with release of ApoB-100-associated lipoproteins from HepG2 cells. As to the kind of experiment: Inhibition of the release of ApoB-100-associated lipoproteins from liver cells (HepG2, anti-LDL immunoassay). It counts as cell-based. Particulars: Homo sapiens; substance concentration at which light absorption at 450 nm (ApoB-100-associated particles in HepG2 supernatant) is inhibited by 50% vs solvent control. The procedure: I. Inhibition of the Release of ApoB-100-Associated Lipoproteins
The test for detecting the inhibition of the release of ApoB-100-associated lipoproteins from liver cells was carried out in vitro using cultured liver cells, preferably using cells of the human line HepG2. These cells are cultured under standard conditions in medium for the culture of eukaryotic cells, preferably in RPMI 1640 with 10% foetal calf serum. HepG2 cells synthesize and secrete into the culture supernatant ApoB-100-associated lipoprotein particles which in principle are built up in a similar manner to the VLDL and LDL particles which are to be found in the plasma.
These particles can be detected using an immunoassay for human LDL. This immunoassay is carried out using antibodies which have been induced against human LDL in rabbits under standard conditions. The anti-LDL antibodies (rabbit anti-LDL Ab) were purified by affinity chromatography on an immunosorbent using human LDL. […] The immune complex located on the plastic surface is detected using monoclonal antibodies which have been induced against human LDL and purified according to standard conditions. […] After acidification of the reaction mixture with H2SO4, the specific light absorption at 450 nm is determined, which is a measure of the amount of ApoB-100-associated particles which have been secreted into the culture supernatant by the HepG2 cells. […]

Each structure is given as a SMILES string. pIC50: −log10 of the molar value.

Turning to `Cc1cc(C)c2c3c(n(Cc4ccc(C(C(=O)N[C@@H](CO)c5ccccc5)C5CCCC5)cc4)c2n1)CCCC3` (single isomer, unassigned) [Ex. No. 2], the ED50 in the assay with VLDL secretion lay within 10 to 15 mg/kg. Compound `Cc1cc(C)c2c3c(n(Cc4ccc(C(C(=O)N[C@@H](CO)c5ccccc5)C5CCCC5)cc4)c2n1)CCCC3` (stereo partly drawn) [Ex. No. 1, 2-S— and 2-(R)-2-[4-(2,4Dimethyl-5,6,7,8-tetrahydro-α-carbolin-9-yl)-methyl-phenyl]-2-cyclopentyl-acetic acid N—[(R)-phenylglycinolamide]] had a negative-log IC50 (pIC50) in assay [1] of 7.55.

What is called ED50 is the midpoint of the dose-response relation. High values mean weaker potency, low ones greater potency. The term pIC50 denotes −log10 of the IC50, conventionally taken in molar units.
